Experimental data published in ChEMBL document CHEMBL5244269, “Improving metabolic stability and removing aldehyde oxidase liability in a 5-azaquinazoline series of IRAK4 inhibitors” (Bioorg Med Chem, 2020).

What was measured:
Format in all cases: functional
SUD4 [1] = test: Growth inhibition of human SU-DHL-4 cells at 1.7 uM incubated for 3 days in presence of 0.17 uM acalabrutinib relative to control; conditions: SU-DHL-4, 72 h, time 3 day, read-out: GI
OCI-Ly10 [2] = test: Growth inhibition of human OCILY10 cells at 1.7 uM incubated for 3 days in presence of 0.017 uM acalabrutinib relative to control; conditions: OCI-Ly10, 72 h, time 3 day, read-out: GI
SUD4 [3] = test: Growth inhibition of human SU-DHL-4 cells at 0.33 uM incubated for 3 days in presence of 0.033 uM acalabrutinib relative to control; conditions: SU-DHL-4, 72 h, time 3 day, read-out: GI
SUD4 [4] = test: Growth inhibition of human SU-DHL-4 cells at 3.3 uM incubated for 3 days in presence of 0.17 uM acalabrutinib relative to control; conditions: SU-DHL-4, 72 h, time 3 day, read-out: GI
OCI-Ly10 [5] = test: Growth inhibition of human OCILY10 cells at 1.7 uM incubated for 3 days in presence of 0.33 uM acalabrutinib relative to control; conditions: OCI-Ly10, 72 h, time 3 day, read-out: GI
OCI-Ly10 [6] = test: Growth inhibition of human OCILY10 cells at 0.17 uM incubated for 3 days in presence of 0.017 uM acalabrutinib relative to control; conditions: OCI-Ly10, 72 h, time 3 day, read-out: GI
SUD4 [7] = test: Growth inhibition of human SU-DHL-4 cells at 1.7 uM incubated for 3 days in presence of 0.033 uM acalabrutinib relative to control; conditions: SU-DHL-4, 72 h, time 3 day, read-out: GI
OCI-Ly10 [8] = test: Growth inhibition of human OCILY10 cells at 0.17 uM incubated for 3 days in presence of 0.003 uM acalabrutinib relative to control; conditions: OCI-Ly10, 72 h, time 3 day, read-out: GI
OCI-Ly10 [9] = test: Growth inhibition of human OCILY10 cells at 3.3 uM incubated for 3 days in presence of 0.017 uM acalabrutinib relative to control; conditions: OCI-Ly10, 72 h, time 3 day, read-out: GI
OCI-Ly10 [10] = test: Growth inhibition of human OCILY10 cells at 0.33 uM incubated for 3 days in presence of 0.33 uM acalabrutinib relative to control; conditions: OCI-Ly10, 72 h, time 3 day, read-out: GI
OCI-Ly10 [11] = test: Growth inhibition of human OCILY10 cells at 3.3 uM incubated for 3 days in presence of 0.33 uM acalabrutinib relative to control; conditions: OCI-Ly10, 72 h, time 3 day, read-out: GI
SUD4 [12] = test: Growth inhibition of human SU-DHL-4 cells at 10 uM incubated for 3 days in presence of 0.017 uM acalabrutinib relative to control; conditions: SU-DHL-4, 72 h, time 3 day, read-out: GI
SUD4 [13] = test: Growth inhibition of human SU-DHL-4 cells at 1.7 uM incubated for 3 days in presence of 0.017 uM acalabrutinib relative to control; conditions: SU-DHL-4, 72 h, time 3 day, read-out: GI
OCI-Ly10 [14] = test: Growth inhibition of human OCILY10 cells at 3.3 uM incubated for 3 days in presence of 0.17 uM acalabrutinib relative to control; conditions: OCI-Ly10, 72 h, time 3 day, read-out: GI
SUD4 [15] = test: Growth inhibition of human SU-DHL-4 cells at 0.17 uM incubated for 3 days in presence of 0.003 uM acalabrutinib relative to control; conditions: SU-DHL-4, 72 h, time 3 day, read-out: GI
OCI-Ly10 [16] = test: Growth inhibition of human OCILY10 cells at 0.33 uM incubated for 3 days in presence of 0.017 uM acalabrutinib relative to control; conditions: OCI-Ly10, 72 h, time 3 day, read-out: GI
SUD4 [17] = test: Growth inhibition of human SU-DHL-4 cells at 3.3 uM incubated for 3 days in presence of 0.33 uM acalabrutinib relative to control; conditions: SU-DHL-4, 72 h, time 3 day, read-out: GI
SUD4 [18] = test: Growth inhibition of human SU-DHL-4 cells at 0.33 uM incubated for 3 days in presence of 0.33 uM acalabrutinib relative to control; conditions: SU-DHL-4, 72 h, time 3 day, read-out: GI
SUD4 [19] = test: Growth inhibition of human SU-DHL-4 cells at 0.33 uM incubated for 3 days in presence of 0.003 uM acalabrutinib relative to control; conditions: SU-DHL-4, 72 h, time 3 day, read-out: GI
SUD4 [20] = test: Growth inhibition of human SU-DHL-4 cells at 0.33 uM incubated for 3 days in presence of 0.017 uM acalabrutinib relative to control; conditions: SU-DHL-4, 72 h, time 3 day, read-out: GI
OCI-Ly10 [21] = test: Growth inhibition of human OCILY10 cells at 1.7 uM incubated for 3 days in presence of 0.003 uM acalabrutinib relative to control; conditions: OCI-Ly10, 72 h, time 3 day, read-out: GI
OCI-Ly10 [22] = test: Growth inhibition of human OCILY10 cells at 10 uM incubated for 3 days in presence of 0.033 uM acalabrutinib relative to control; conditions: OCI-Ly10, 72 h, time 3 day, read-out: GI
SUD4 [23] = test: Growth inhibition of human SU-DHL-4 cells at 1.7 uM incubated for 3 days in presence of 0.003 uM acalabrutinib relative to control; conditions: SU-DHL-4, 72 h, time 3 day, read-out: GI
SUD4 [24] = test: Growth inhibition of human SU-DHL-4 cells at 0.17 uM incubated for 3 days in presence of 0.17 uM acalabrutinib relative to control; conditions: SU-DHL-4, 72 h, time 3 day, read-out: GI
SUD4 [25] = test: Growth inhibition of human SU-DHL-4 cells at 1.7 uM incubated for 3 days in presence of 0.33 uM acalabrutinib relative to control; conditions: SU-DHL-4, 72 h, time 3 day, read-out: GI
SUD4 [26] = test: Growth inhibition of human SU-DHL-4 cells at 3.3 uM incubated for 3 days in presence of 0.017 uM acalabrutinib relative to control; conditions: SU-DHL-4, 72 h, time 3 day, read-out: GI
OCI-Ly10 [27] = test: Growth inhibition of human OCILY10 cells at 1.7 uM incubated for 3 days in presence of 0.033 uM acalabrutinib relative to control; conditions: OCI-Ly10, 72 h, time 3 day, read-out: GI
SUD4 [28] = test: Growth inhibition of human SU-DHL-4 cells at 0.17 uM incubated for 3 days in presence of 0.33 uM acalabrutinib relative to control; conditions: SU-DHL-4, 72 h, time 3 day, read-out: GI
OCI-Ly10 [29] = test: Growth inhibition of human OCILY10 cells at 10 uM incubated for 3 days in presence of 0.017 uM acalabrutinib relative to control; conditions: OCI-Ly10, 72 h, time 3 day, read-out: GI
OCI-Ly10 [30] = test: Growth inhibition of human OCILY10 cells at 10 uM incubated for 3 days in presence of 0.33 uM acalabrutinib relative to control; conditions: OCI-Ly10, 72 h, time 3 day, read-out: GI
SUD4 [31] = test: Growth inhibition of human SU-DHL-4 cells at 10 uM incubated for 3 days in presence of 0.17 uM acalabrutinib relative to control; conditions: SU-DHL-4, 72 h, time 3 day, read-out: GI
OCI-Ly10 [32] = test: Growth inhibition of human OCILY10 cells at 0.17 uM incubated for 3 days in presence of 0.033 uM acalabrutinib relative to control; conditions: OCI-Ly10, 72 h, time 3 day, read-out: GI
SUD4 [33] = test: Growth inhibition of human SU-DHL-4 cells at 3.3 uM incubated for 3 days in presence of 0.033 uM acalabrutinib relative to control; conditions: SU-DHL-4, 72 h, time 3 day, read-out: GI
SUD4 [34] = test: Growth inhibition of human SU-DHL-4 cells at 0.17 uM incubated for 3 days in presence of 0.033 uM acalabrutinib relative to control; conditions: SU-DHL-4, 72 h, time 3 day, read-out: GI
SUD4 [35] = test: Growth inhibition of human SU-DHL-4 cells at 0.17 uM incubated for 3 days in presence of 0.017 uM acalabrutinib relative to control; conditions: SU-DHL-4, 72 h, time 3 day, read-out: GI
SUD4 [36] = test: Growth inhibition of human SU-DHL-4 cells at 3.3 uM incubated for 3 days in presence of 0.003 uM acalabrutinib relative to control; conditions: SU-DHL-4, 72 h, time 3 day, read-out: GI
OCI-Ly10 [37] = test: Growth inhibition of human OCILY10 cells at 3.3 uM incubated for 3 days in presence of 0.003 uM acalabrutinib relative to control; conditions: OCI-Ly10, 72 h, time 3 day, read-out: GI
OCI-Ly10 [38] = test: Growth inhibition of human OCILY10 cells at 0.33 uM incubated for 3 days in presence of 0.17 uM acalabrutinib relative to control; conditions: OCI-Ly10, 72 h, time 3 day, read-out: GI
OCI-Ly10 [39] = test: Growth inhibition of human OCILY10 cells at 0.17 uM incubated for 3 days in presence of 0.33 uM acalabrutinib relative to control; conditions: OCI-Ly10, 72 h, time 3 day, read-out: GI
OCI-Ly10 [40] = test: Growth inhibition of human OCILY10 cells at 1.7 uM incubated for 3 days in presence of 0.17 uM acalabrutinib relative to control; conditions: OCI-Ly10, 72 h, time 3 day, read-out: GI
SUD4 [41] = test: Growth inhibition of human SU-DHL-4 cells at 10 uM incubated for 3 days in presence of 0.003 uM acalabrutinib relative to control; conditions: SU-DHL-4, 72 h, time 3 day, read-out: GI

## Cc1ncc(-c2nc3c(OC4(C)CC4)nc(Nc4cnn(C5CCN(C)CC5)c4)nc3cc2F)cn1
SUD4 [1]
  inhibition of growth at 1.7 µM: -3%
OCI-Ly10 [2]
  inhibition of growth at 1.7 µM: 188%
SUD4 [3]
  inhibition of growth at 0.33 µM: -3%
SUD4 [4]
  inhibition of growth at 3.3 µM: -3%
OCI-Ly10 [5]
  inhibition of growth at 1.7 µM: 193%
OCI-Ly10 [6]
  inhibition of growth at 0.17 µM: 92%
SUD4 [7]
  inhibition of growth at 1.7 µM: -4%
OCI-Ly10 [8]
  inhibition of growth at 0.17 µM: 24%
OCI-Ly10 [9]
  inhibition of growth at 3.3 µM: 194%
OCI-Ly10 [10]
  inhibition of growth at 0.33 µM: 172%
OCI-Ly10 [11]
  inhibition of growth at 3.3 µM: 194%
SUD4 [12]
  inhibition of growth at 10 µM: 2%
SUD4 [13]
  inhibition of growth at 1.7 µM: 0%
OCI-Ly10 [14]
  inhibition of growth at 3.3 µM: 194%
SUD4 [15]
  inhibition of growth at 0.17 µM: -1%
OCI-Ly10 [16]
  inhibition of growth at 0.33 µM: 122%
SUD4 [17]
  inhibition of growth at 3.3 µM: -2%
SUD4 [18]
  inhibition of growth at 0.33 µM: -1%
SUD4 [19]
  inhibition of growth at 0.33 µM: 0%
SUD4 [20]
  inhibition of growth at 0.33 µM: 1%
OCI-Ly10 [21]
  inhibition of growth at 1.7 µM: 93%
OCI-Ly10 [22]
  inhibition of growth at 10 µM: 197%
SUD4 [23]
  inhibition of growth at 1.7 µM: -1%
SUD4 [24]
  inhibition of growth at 0.17 µM: -3%
SUD4 [25]
  inhibition of growth at 1.7 µM: -2%
SUD4 [26]
  inhibition of growth at 3.3 µM: 0%
OCI-Ly10 [27]
  inhibition of growth at 1.7 µM: 193%
SUD4 [28]
  inhibition of growth at 0.17 µM: -2%
OCI-Ly10 [29]
  inhibition of growth at 10 µM: 198%
OCI-Ly10 [30]
  inhibition of growth at 10 µM: 197%
SUD4 [31]
  inhibition of growth at 10 µM: -1%
OCI-Ly10 [32]
  inhibition of growth at 0.17 µM: 117%
SUD4 [33]
  inhibition of growth at 3.3 µM: -4%
SUD4 [34]
  inhibition of growth at 0.17 µM: -4%
SUD4 [35]
  inhibition of growth at 0.17 µM: 0%
SUD4 [36]
  inhibition of growth at 3.3 µM: -1%
OCI-Ly10 [37]
  inhibition of growth at 3.3 µM: 156%
OCI-Ly10 [38]
  inhibition of growth at 0.33 µM: 169%
OCI-Ly10 [39]
  inhibition of growth at 0.17 µM: 138%
OCI-Ly10 [40]
  inhibition of growth at 1.7 µM: 190%
SUD4 [41]
  inhibition of growth at 10 µM: 1%
